# Target: Acetylcholinesterase (Homo sapiens, UniProt P22303)
# Test: Inhibition of recombinant human AChE
# Settings: read-out: kon (M-1-s-1)
# Chain of Acetylcholinesterase (P22303 whole entry): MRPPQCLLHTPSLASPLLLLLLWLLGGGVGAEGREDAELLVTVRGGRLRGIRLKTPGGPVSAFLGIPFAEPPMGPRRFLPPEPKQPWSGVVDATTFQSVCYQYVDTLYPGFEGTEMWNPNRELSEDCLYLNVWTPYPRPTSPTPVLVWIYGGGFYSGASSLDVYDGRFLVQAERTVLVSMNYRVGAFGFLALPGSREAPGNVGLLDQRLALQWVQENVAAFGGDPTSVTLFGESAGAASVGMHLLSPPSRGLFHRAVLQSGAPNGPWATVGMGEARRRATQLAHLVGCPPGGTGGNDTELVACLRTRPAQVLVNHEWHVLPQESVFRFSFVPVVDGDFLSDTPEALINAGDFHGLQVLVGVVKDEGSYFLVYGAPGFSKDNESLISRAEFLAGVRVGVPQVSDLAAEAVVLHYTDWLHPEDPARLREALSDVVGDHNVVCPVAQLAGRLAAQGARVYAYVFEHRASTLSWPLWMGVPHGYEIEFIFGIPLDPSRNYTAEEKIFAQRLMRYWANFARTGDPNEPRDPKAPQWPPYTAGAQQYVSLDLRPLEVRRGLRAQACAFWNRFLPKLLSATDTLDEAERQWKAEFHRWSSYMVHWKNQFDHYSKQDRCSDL
row,Structure (SMILES),kon
1,CNC(=O)Oc1cccc(C(C)(C)C)c1,2100 M⁻¹ s⁻¹
2,CCC(C)n1cc(OC(=O)NC)cn1 (stereo not drawn),13400 M⁻¹ s⁻¹
3,Cc1cc(=O)n(C(=O)N(C)C)o1,20.3 M⁻¹ s⁻¹
4,CN(C)C(=O)n1oc(C2CC2)cc1=O,1720 M⁻¹ s⁻¹
5,CC(C)c1cc(=O)n(C(=O)N(C)C)o1,9350 M⁻¹ s⁻¹
6,CN(C)C(=O)n1oc(C2CCC2)cc1=O,3880 M⁻¹ s⁻¹
7,CCC(C)c1cc(=O)n(C(=O)N(C)C)o1 (stereo not drawn),36200 M⁻¹ s⁻¹
8,CN(C)C(=O)n1oc(C2CCCC2)cc1=O,11300 M⁻¹ s⁻¹
9,CCCC(C)c1cc(=O)n(C(=O)N(C)C)o1 (stereo not drawn),51800 M⁻¹ s⁻¹
10,CCC(CC)c1cc(=O)n(C(=O)N(C)C)o1,33200 M⁻¹ s⁻¹
11,CC(C)Cc1cc(=O)n(C(=O)N(C)C)o1,515 M⁻¹ s⁻¹
12,CCC(C)Cc1cc(=O)n(C(=O)N(C)C)o1 (stereo not drawn),1870 M⁻¹ s⁻¹
13,CC(C)CCc1cc(=O)n(C(=O)N(C)C)o1,1350 M⁻¹ s⁻¹
14,CN(C)C(=O)n1oc(CCC2CC2)cc1=O,2400 M⁻¹ s⁻¹
15,CN(C)C(=O)n1oc(CCC2CCC2)cc1=O,1240 M⁻¹ s⁻¹
16,CN(C)C(=O)n1oc(CCC2CCCC2)cc1=O,1530 M⁻¹ s⁻¹
17,CCCC(C)c1cc(=O)n(C(=O)N2CCC2)o1 (stereo not drawn),31000 M⁻¹ s⁻¹
18,CCCC(C)c1cc(=O)n(C(=O)N(C)CC)o1 (stereo not drawn),18000 M⁻¹ s⁻¹
19,CCCC(C)c1cc(=O)n(C(=O)N(CC)CC)o1 (stereo not drawn),3000 M⁻¹ s⁻¹
20,CCCC(C)c1cc(=O)n(C(=O)N2CCCC2)o1 (stereo not drawn),6320 M⁻¹ s⁻¹
21,CCCC(C)c1cc(=O)n(C(=O)N2CCOCC2)o1 (stereo not drawn),433 M⁻¹ s⁻¹
22,Cc1cc(OC(=O)N(C)C)no1,1.97 M⁻¹ s⁻¹

row,Structure (SMILES),kon
1,CN(C)C(=O)Oc1cc(C2CC2)on1,33.7 M⁻¹ s⁻¹
2,CC(C)c1cc(OC(=O)N(C)C)no1,74.3 M⁻¹ s⁻¹
3,CN(C)C(=O)Oc1cc(C2CCC2)on1,31 M⁻¹ s⁻¹
4,CCC(C)c1cc(OC(=O)N(C)C)no1 (stereo not drawn),1000 M⁻¹ s⁻¹
5,CN(C)C(=O)Oc1cc(C2CCCC2)on1,77 M⁻¹ s⁻¹
6,CCCC(C)c1cc(OC(=O)N(C)C)no1 (stereo not drawn),848 M⁻¹ s⁻¹
7,CCC(CC)c1cc(OC(=O)N(C)C)no1,151 M⁻¹ s⁻¹
8,CCCCC(CC)c1cc(OC(=O)N(C)C)no1 (stereo not drawn),35.5 M⁻¹ s⁻¹
9,CC(C)Cc1cc(OC(=O)N(C)C)no1,26.5 M⁻¹ s⁻¹
10,CCC(C)Cc1cc(OC(=O)N(C)C)no1 (stereo not drawn),28.3 M⁻¹ s⁻¹
11,CN(C)C(=O)Oc1cc(CC(C)(C)C)on1,7.33 M⁻¹ s⁻¹
12,CC(C)CCc1cc(OC(=O)N(C)C)no1,31.8 M⁻¹ s⁻¹
13,CN(C)C(=O)Oc1cc(CCC2CC2)on1,138 M⁻¹ s⁻¹
14,CN(C)C(=O)Oc1cc(CCC2CCC2)on1,121 M⁻¹ s⁻¹
15,CN(C)C(=O)Oc1cc(CCC2CCCC2)on1,218 M⁻¹ s⁻¹
16,CCCC(C)c1cc(OC(=O)N(C)CC)no1 (stereo not drawn),152 M⁻¹ s⁻¹
17,CCCC(C)c1cc(OC(=O)N2CCCC2)no1 (stereo not drawn),27 M⁻¹ s⁻¹
18,CCCC(C)c1cc(OC(=O)N2CCOCC2)no1 (stereo not drawn),44.7 M⁻¹ s⁻¹
19,CNC(=O)Oc1cccc2c1OC(C)(C)O2 [CHEBI:34556],1850 M⁻¹ s⁻¹
20,CNC(=O)Oc1cccc2c1OC(C)(C)C2 [CHEBI:34611],7130 M⁻¹ s⁻¹
21,CNC(=O)Oc1ccccc1OC(C)C [CHEBI:34938],283 M⁻¹ s⁻¹
